pEC50, pIC50: −log10 of the molar value. Calls of active or inactive are those of the source.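 How the source made its calls: active means compounds giving half or more protection of infected cells from virus-caused growth loss, again on retest; inactive means the rest.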
Test system: CEM cells HIV-1 protection, formazan growth assay
Experiment: NCI AIDS Antiviral Assay
Settings: for pIC50: measured here: growth of uninfected CEM cells
Method in brief: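 Protection of CEM cells against HIV-1 measured as cell growth via soluble formazan read-out, with five concentrations tested on both infected and uninfected cells; failure to protect may reflect toxicity.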

Compound	pEC50	pIC50	outcome
[CH2+][B-]1(C)n2ccc[n+]2[B-](C)(C)[n+]2cccn21	< 3.70	< 4.00	
ON=C1/C(=N\O)CCC/C1=N/O	< 2.98	4.72	
COC(=O)C(C(=O)C(=O)Nc1ccc(C(F)(F)F)cc1[N+](=O)[O-])c1csc(-n2nc(-c3ccccc3)cc2-c2ccccc2)n1 (stereo unspecified)	< 4.27	4.40	
O=C1/C(=C/c2ccc(O)cc2)CC/C1=C\c1ccc(O)cc1	< 3.70	4.50	
CCOC(=O)C1=C(OC(OCC)C(CC)[Se]c2ccccc2)CCCC1 (stereo unspecified)	< 4.63	< 4.63	
CSc1nc(N)cc(C(F)(F)F)n1	< 3.70	< 3.70	
CCCCNC(=O)Nc1c(C(N)=O)c2n(c1C(=O)OCC)CCCCC2	< 4.30	< 4.30	
CC(=O)Nc1[nH]n(C)c(=O)c1-c1nnc(C)s1	< 3.01	3.36	
O=C1C(NS(=O)(=O)c2ccccc2)=C(n2ccnc2)C(=O)c2ccccc21	< 3.70	4.04	
COC(=O)C(Cc1c(C2Nc3ccccc3C2CC(NC(=O)CNC(C)=O)C(=O)OC)[nH]c2ccccc12)NC(=O)CNC(C)=O (stereo unspecified)	< 3.70	< 3.70	
C/C(=C\C(=O)OCCCCCCCC(=O)NC1CCCNC1=O)C[C@@H]1OC[C@H](C/C=C/[C@@H](C)[C@H](C)O)[C@@H](O)[C@H]1O (stereo partly specified)			inactive
COc1ccc2c3c([nH]c2c1[N+](=O)[O-])C(C)N(C(=O)/C=C/c1ccccc1)CC3 (stereo unspecified)			inactive
COC1(OC)CC2C(=O)N(Cc3ccccc3)C1C(S(=O)(=O)c1ccccc1)C2S(=O)(=O)c1ccccc1 (stereo unspecified)			inactive
[Ni+2].[O-]/C(=N\N=C/c1ccc(C(F)(F)F)cc1)c1ccncc1.[O-]/C(=N\N=C\c1ccc(C(F)(F)F)cc1)c1ccncc1	< 4.00	4.78	
Oc1c(C2=NNC(c3cccs3)C2)ccc2ccccc12 (stereo unspecified)	< 3.70	4.48	
COc1ccc(OC)c(NC(=O)Nc2nccs2)c1	< 3.70	< 3.70	
C=C1CC[C@]2(C)C3CC[C@]4(C)C(C(C)CCC(=O)O)CCC4[C@@H]3CC[C@@H]2C1 (stereo partly specified)	< 5.29	< 5.29	
Cc1cn([C@H]2C[C@@H]3[C@@H](COC(CCCC[Se]c4ccccc4)N3O)O2)c(=O)[nH]c1=O (stereo partly specified)	4.83	3.98	
Cc1ccc(-c2c3c(n(C4OC(CO)C(O)C(O)C4O)c(=S)c2C#N)CC(C)(C)CC3=O)cc1 (stereo unspecified)	< 3.70	4.01	
CCOC(=O)C1Cc2ccc(OC)cc2C2=CC(=O)CCC21 (stereo unspecified)	< 3.78	< 3.78	
CN(C)CCNC(=O)C1COc2cc(-c3cc(=O)c4ccccc4o3)ccc2O1 (stereo unspecified)			inactive
Oc1ccc([Te]CCNCC[Te]c2ccc(O)cc2)cc1	< 5.00	5.23	
Oc1ccccc1-c1nc2sc(-c3ccccc3O)nc2s1	< 3.70	3.88	

Compound	pEC50	pIC50	outcome
Cc1cc(=O)c2c(o1)-c1c(cc(O)c(O)c1C(=O)O)OC2	< 3.06	4.24	
C[Si](C)(C)/C(I)=C/CO			inactive
Cc1cc(S(=O)(=O)/N=C(/NN)NNc2cccc(C(F)(F)F)n2)c(S)cc1Cl	< 3.70	4.37	
CN(NC(=O)/C(=C/c1ccc(Cl)cc1)NC(=O)c1ccccc1)c1cn[nH]c(=O)c1Cl	< 3.70	5.16	
COC(=O)/C=C/C(=O)C1C(C(=O)OC)C2(C(=O)OC)CCC1(C(=O)OC)N2 (stereo unspecified)			inactive
CCCCC(C)CCCC1=C(O)C(CC(=O)O)OC1=O (stereo unspecified)	< 4.06	< 4.06	
[N-]=[N+]=NCC1OCC(O)C(OCc2ccccc2)C1OCc1ccccc1 (stereo unspecified)	< 3.70	4.02	
COc1cccc(-c2c(C#N)c(N)nc3c2CCS(=O)(=O)c2ccc(C)cc2-3)c1	< 3.70	< 3.70	
COc1nc(NC2OC(CO)C(O)C(O)C2O)cc(=O)[nH]1 (stereo unspecified)			inactive
CCOC(=O)[C@@]1(C(C)=O)CC(C)=C(C)C[S@]1=O	< 3.70	< 3.70	
CC(=O)NC(CCC(=O)c1ccc(Cl)cc1Cl)C(=O)O (stereo unspecified)	< 3.70	< 3.70	
Nc1ccccc1S(=O)(=O)N(CC(=O)O)c1ccccc1			inactive
OC1(c2ccccc2)CC(c2ccccc2)c2ccccc2O1 (stereo unspecified)	< 3.70	4.50	
O=[N+]([O-])C(=C(\Cl)NCCO)/C(Cl)=C(/Cl)Br	< 4.70	6.00	
Cc1ccc(S(=O)(=O)N/N=C2/C3C(CC2(C)C)C2(C)CCCC3(C)C2O)cc1 (stereo unspecified)	< 3.70	< 3.70	
Cc1cccc(NC(=O)Nc2ccccc2Cl)n1	< 3.70	< 3.70	
CC(=O)NC1C(O[C@H]2CC[C@@]3(C)C(CC[C@]4(C)C3CC=C3C5CC(C)(C)CC[C@]5(C(=O)O)CCC34C)C2(C)C)OC(CO)C(O)C1O (stereo partly specified)	< 3.70	5.04	
CCCCc1ccc(Nc2nc3c(ncn3COCCBr)c(=O)[nH]2)cc1	< 3.70	< 3.70	
O=c1oc2ccccc2c(O)c1C(c1ccc(O)cc1)c1c(O)c2ccccc2oc1=O			inactive
Nc1ccn(CC(=O)NCCCCO)c(=O)n1	< 3.70	< 3.70	
CCOC(=O)c1c(N)sc2c1CCCC2	< 3.70	4.25	
CC(=O)OC1(CSc2ccccc2)CCCCC1	< 3.70	4.31	
O=C1NC(=S)SC1N=Nc1ccc(S(=O)(=O)Nc2ncccn2)cc1 (stereo unspecified)	< 3.70	< 3.70	

Compound	pEC50	pIC50	outcome
CCSC1=N/C(=C\c2ccco2)C(=O)N1	< 3.70	< 3.70	
O=P(O)(O)CN1CCN(CP(=O)(O)O)CCN(CP(=O)(O)O)CCN(CP(=O)(O)O)CC1	< 4.00	4.69	
Cc1nn(C)pc1P(C)(=S)n1nc(N(C)C)np1 (stereo unspecified)	< 3.11	< 3.11	
C1Cn2nnnc2N1	< 2.65	< 2.65	
O=S1C(=c2ccc(=C3Sc4ccccc4S3)cc2)Sc2ccccc21 (stereo unspecified)			inactive
CCOC(=O)c1c(-c2ccc(Cl)cc2)c(C#N)c(=S)n(C2OC(CO)C(O)C(O)C2O)c1-c1ccccc1 (stereo unspecified)	< 3.70	4.46	
Cc1c(NC(=O)CCCl)c(=O)oc2c(C)c3occc(=O)c3cc12	< 3.84	5.83	
CC1(C)C2C=CC1C(=O)CC2 (stereo unspecified)	< 3.41	< 3.41	
CC(C)C1NC(=O)c2ccccc2S1 (stereo unspecified)	< 3.06	3.71	
CP1(=O)CC(=O)CCCCC(=O)C1			inactive
O=C(O)c1cccc(S(=O)(=O)NN2C(=O)CSC2c2ccc(Cl)cc2Cl)c1 (stereo unspecified)	< 3.70	4.45	
Nc1ncnc2c1ncn2C1CCCCC(O)C1 (stereo unspecified)			inactive
O=[N+]([O-])c1ccc(Cl)cc1N/N=C/c1cccc2cccnc12	< 3.70	< 3.70	
NC(=O)n1ncc(Cl)c(Cl)c1=O	< 4.04	4.32	
C1=CC2C=CC(C=C1)P2c1ccccc1 (stereo unspecified)			inactive
CCOc1ccc(N=Nc2ccc3oc(=O)c(/C(C)=N\NC(=O)CC(=O)Nc4ccc(Cl)cc4)cc3c2)cc1	< 4.88	< 4.88	
C=CCON(C(=O)OC(C)(C)C)C(C)(C)C	< 3.70	< 3.70	
CC(C)(C)OC(=O)NCCCCC(NC(=O)OCc1ccccc1)C(N)=O (stereo unspecified)	< 3.70	< 3.70	
COC(=O)c1ccc(NC(=O)O/N=C(\Cl)C(C)C)cc1	< 4.70	5.44	
Cc1cc(O)c2c(c1)C(C1OC(CO)C(O)C(O)C1O)c1cc(O)cc(O)c1C2=O (stereo unspecified)	< 3.70	< 3.70	
CN1CCC/C1=C1\C(=O)c2cccn2C1=O	< 3.70	< 3.70	
CCOC(=O)c1nc2cc(F)c(N3CCOCC3)cc2[nH]c1=O	< 3.70	4.02	
O=C(NO)c1ccc(O)c(O)c1	< 2.83	4.13	

Compound	pEC50	pIC50	outcome
O=C1CCCCC1=O			inactive
CC(C)(C)OC(=O)NCCNC(=O)OCc1ccccc1	< 3.70	< 3.70	
O=S(=O)(OI(OI(OS(=O)(=O)C(F)(F)F)c1ccccc1)c1ccccc1)C(F)(F)F	< 3.46	5.16	
CCOC(=O)c1sc2nc(CN3CCOCC3)[nH]c(=O)c2c1C	< 4.11	< 4.11	
CNS(=O)(=O)NN(C)S(=O)(=O)c1ccc(Cl)cc1	< 3.68	3.69	
Cc1ccc(OCC2OC(n3cnc4c(N(C)C)nc(Br)nc43)CC2Oc2ccc(C)cc2)cc1 (stereo unspecified)	< 3.70	4.50	
O=C(N/C(=C\c1ccccc1[N+](=O)[O-])c1nc2ccccc2[nH]1)c1ccccc1	< 4.31	< 4.31	
O=c1[nH]nc(-c2ccccc2)n1/N=C/c1ccncc1	< 3.70	4.28	
OCC(Oc1ccccc1)C(O)C(O)C(CO)Oc1ccccc1 (stereo unspecified)	< 3.70	< 3.70	
CC(=O)OCC1OC(N2C(=O)[C@@H](Oc3ccccc3)[C@H]2c2ccccc2)C(OC(C)=O)C(OC(C)=O)C1OC(C)=O (stereo partly specified)	< 3.70	3.76	
O=C(O)c1cccc2c(=O)c3ccccc3oc12	< 3.01	3.68	
CCCc1ccc(NCc2cc(OC)c(OC)c(OC)c2)cc1	< 4.13	4.50	
C[N+](C)(Cc1ccc(NC(=O)CCCC(=O)ON2C(=O)CCC2=O)cc1)c1ccccc1	< 3.70	3.87	
CCCCCC(=O)n1[nH]c(=O)n(-c2ccc(OC)cc2)c1=O	< 3.70	< 3.70	
COC1(OC)N=C(N)C2(C#N)C(C)=C3NCN(C)N=C3C12C#N (stereo unspecified)	< 3.70	< 3.70	
COc1ccc2c3c(c(C(=O)O)oc13)C(CCC(=O)O)CC2 (stereo unspecified)			inactive
COC(CN(C)C(=S)Nc1cccc2ccccc12)OC	< 3.70	4.10	
COC(=O)C(Cc1c[nH]c2ccccc12)NC(=O)C(Cc1c[nH]c2ccccc12)NC(=O)OCc1ccccc1 (stereo unspecified)			inactive
Nc1nnc(N)n1-n1c(N)nnc1N	< 3.70	3.78	
CC(=O)Nc1oc(C)c(C)c1S(=O)(=O)c1ccc(Cl)cc1	< 3.70	3.97	
CCOC(=O)Cc1cnc(NC(NC(=O)CC)(C(F)(F)F)C(F)(F)F)s1	< 3.70	< 3.70	
O=C1NC(=O)C(=Cc2ccccc2)C(=O)N1	< 3.78	< 3.78	

Reference: PubChem BioAssay AID179 (DTP/NCI, 2004)
